Experimental data from article PMC7647111, “Antileishmanial compounds from Connarus suberosus: Metabolomics, isolation and mechanism of action” (PLoS ONE, 2020).
Values after ≈ are worked out from the molar mass of the structure shown. Values joined by “and” are separate entries in the source; they are usually repeats but may differ in a detail not shown here. Equal values may be shown once. Read-outs that look alike come from different tables or passages of the source.

Key:
[1] = system: L. amazonensis promastigotes; assay: Antiproliferation assay: L. amazonensis promastigotes (24 h), resazurin; format: cell-based, Leishmania amazonensis (IFLA/BR/1967/PH8); settings: Leishmania amazonensis, after 24 h, read-out: IC50 (CI95)
Protocol: (§1) Leishmania amazonensis promastigotes (IFLA/BR/1967/PH8) for the 24 h exposure test were cultivated in RPMI 1640, supplemented with 20% v/v heat inactivated fetal bovine serum (FBS) and incubated at 26°C until near the end of the log growth phase. Leishmania amazonensis (IFLA/BR/1967/PH8) and L. infantum (MCAN/BR/2008/1112) promastigotes used in the 72 h exposure test were cultivated in Warren’s medium (containing brain heart infusion- BHI plus hemin and folic acid), supplemented with 10% FBS, 0.1% of the antibiotics: 100 UI/mL penicillin G and 0.1 mg/mL streptomycin. Leishmania amazonensis (IFLA/BR/1967/PH8) transfected with the red fluorescent protein (RFP) gene was cultured in M199 medium (containing 0.1 mmol/L adenine, 40 mmol/L hepes, 0.0005% hemin and 0.0002% biotin), supplemented with 10% FBS, and 0.1% of the antibiotic. Parasites were maintained at 25°C in a BOD incubator.
Extracts and fractions were tested against L. amazonensis (IFLA/BR/1967/PH8) promastigote cells in a 96-well plate at a concentration of 10^6 cells/well. Each sample was solubilized in DMSO (<1%) since it was not soluble directly in the medium. Extracts were tested at 100 μg/mL and 50 μg/mL. […] Plates were read at 570 nm and 595 nm in a microplate reader (BiochromAsys UVM 340) after cell lysis with sodium dodecyl sulfate (SDS). Viability was calculated based on the equations described by Kulshrestha.

[2] = system: L. amazonensis amastigotes; assay: L. amazonensis amastigotes assay (RFP parasites in peritoneal macrophages); format: cell-based, Leishmania amazonensis (IFLA/BR/1967/PH8); settings: for IC50: Leishmania amazonensis, Peritoneal macrophage, intracellular; for IC50 / activity against L. amazonensis amastigotes (in words): 72 h
Protocol: Peritoneal macrophages obtained from BALB/c mice were transferred to a 24-well plate (6x10^5 cells/well) in RPMI 1640 medium supplemented with 10% inactivated FBS and 20 mM L-glutamine, pH 7.2. The plate was incubated at 37°C in 5% CO2 for 24 h. After this period, macrophages were infected with L. amazonensis (IFLA/BR/1967/PH8) transfected with RFP in the stationary growth phase using a ratio 1:10 (macrophages/parasites) at 33°C for 4 h. The non-phagocytosed parasites were subsequently removed by extensive PBS wash, and samples added at non-toxic concentrations, in accordance with the cytotoxicity tests (100 μg/mL to 1.56 μg/mL) to determine the IC50 for the intracellular parasite. After 72 h, the supernatant was removed from the wells and 200 μL of deionized water added to each well to lyse the cell membrane. After lysis, the resulting supernatants were transferred to a black 96-well plate. The plate was read in a fluorescence spectrophotometer (FLx800, BioTek Instruments, Inc., Winooski, VT, USA) with 540/600 nm of excitation/emission. Wells containing macrophages infected with L. amazonensis (RFP) […] only were used as negative controls.

Cytotoxicity assay (MTT) = format: cell-based, BALB/c mice; settings: female, BALB/c, mouse, 72 h exposure
Protocol: Female BALB/c mice pre-inoculated with 3% thioglycollate medium were used to obtain macrophages from the peritoneal cavity. Peritoneal exudate was collected 72 h post-inoculation using cold Hank´s Balanced Salt Solution and the assay performed as previously reported. Briefly, peritoneal macrophages in RPMI 1640 medium were transferred to a 96-well plate (2x10^5 cells/well) and incubated at 37°C in 5% CO2 for 24 h to allow adhesion. Samples were serially diluted (100 μg/mL to 0.78 μg/mL), added to the plate with the cells and incubated under the same conditions for 72 h. MTT (10 μL/well) was subsequently added and the plates re-incubated for a further 2 h. To halt the reaction, 100 μL of acidified isopropanol was added to each well. The plate was then read at 570 nm in a microplate reader (Multiskan MS, LabSystems Oy, Helsinki, Finland).

[3] = system: L. infantum promastigotes; assay: Antiproliferation assay: L. infantum promastigotes (72 h), MTT; format: cell-based, Leishmania infantum (MCAN/BR/2008/1112); settings: 72 h exposure; for IC50: Leishmania infantum, 72 h
Protocol: as §1
(§2) Extracts and isolated compounds were tested against L. amazonensis promastigotes (IFLA/BR/1967/PH8 strain - 2x10^5 cells/well) and L. infantum promastigotes (MCAN/BR/2008/1112 strain - 3x10^5 cells/well). The samples were solubilized in DMSO (<1%), serially diluted (100 μg/mL to 1.56 μg/mL) and tested in a 96-well plate to obtain a dose-response curve. Miltefosine and DMSO were used as positive and negative controls, respectively. After 72 h, 10 μL of 3-(4,5-dimethylthiazol-2-yl)-2,5-diphenyl tetrazolium bromide (5 mg/mL—MTT, Sigma-Aldrich) solution was added to each well and the plate returned to the incubator for an additional 4 h. To halt the reaction, 100 μL acidified isopropanol was added to each well. Plates were read at 570 nm in a microplate reader (Multiskan MS, LabSystems Oy, Helsinki, Finland).

[4] = system: L. amazonensis promastigotes; assay: Antiproliferation assay: L. amazonensis promastigotes (72 h), MTT; format: cell-based, Leishmania amazonensis (IFLA/BR/1967/PH8); settings: 72 h exposure; for IC50: Leishmania amazonensis
Protocol: as §1, §2

[5] = system: L. amazonensis promastigotes; assay: Reactive oxygen species (ROS) detection (H2DCFDA); format: cell-based, Leishmania amazonensis
Protocol: Fluorescence intensity was detected using a fluorimetric microplate reader (FLx800, BioTek Instruments, Inc., Winooski, VT, USA), at 485/528 nm excitation/emission. Promastigotes incubated with miltefosine (44.2 μM) were used as a positive control.

[6] = system: L. amazonensis promastigotes; assay: Mitochondrial membrane potential (MitoTracker); format: cell-based, Leishmania amazonensis; settings: 24 h; 2 at 33.8 μM, 3 at 11.4 μM; FCCP 5.0 μM for 10 min
Protocol: After 24 h of incubation at 25°C, the parasite concentration was adjusted to 5x10^6 cells/mL and stained with 500 nM MitoTracker (Invitrogen, Eugene, OR, USA) in the dark for 40 min at 37°C. After washing twice with PBS, samples were transferred in triplicate to a black 96-well plate, and fluorescence measured in a spectrofluorometer (FLx800, BioTek Instruments, Inc., Winooski, VT, USA) at 540/600 nm excitation/emission. […] Louis, MO, USA) for 10 min were used to obtain maximal mitochondrial depolarization (positive control).

[7] = system: L. amazonensis promastigotes; assay: Neutral lipid quantification (Nile Red); format: cell-based, Leishmania amazonensis; settings: 24 h; 2 at 33.8 μM, 3 at 11.4 μM
Protocol: After 24 h of exposure, the parasites (1x10^7 cells/well) were stained with 10 μg/mL Nile Red (Sigma-Aldrich, St. Louis, MO, USA) in the dark for 20 min at 25°C. Fluorescence intensity was analysed in a spectrofluorometer (BioTek Instruments, Inc., Winooski, VT, USA) using 485/528 nm excitation/emission.

[8] = system: L. amazonensis promastigotes; assay: Cell membrane integrity (propidium iodide); format: cell-based, Leishmania amazonensis; settings: 24 h; 2 at 33.8 μM, 3 at 11.4 μM
Protocol: Plates were incubated with propidium iodide (PI) (1.0 μg/mL—Sigma-Aldrich, USA, St. Louis, MO, USA) for 15 min in the dark at RT. Fluorescence was measured using a spectrofluorometer (FLx800, BioTek Instruments, Inc., Winooski, VT, USA) with 540/600 nm excitation/emission. Parasites heated at 65 °C were used as the positive control.

L. infantum amastigotes = L. infantum amastigotes assay (Giemsa, infection index); format: cell-based, Leishmania infantum; settings: Leishmania infantum; intracellular, 72 h
Protocol: Peritoneal macrophages (6 x 10^5 cells) were plated on round glass coverslips within 24-well plates in RPMI 1640 medium supplemented with FBS and 20 mM L-glutamine, pH 7.2, and incubated for 24 h at 37°C in 5% CO2. Stationary-phase promastigotes (6 x 10^6 cells, at a ratio of 10 parasites per macrophage) were then added to the wells, and cultures incubated for 24 h at 37°C in 5% CO2. Non-internalized parasites were removed by extensive PBS solution washing and infected macrophages subsequently treated with nontoxic concentrations of: compound 3 (6.25 μg/mL to 0.18 μg/mL) or miltefosine (10.0 μg/mL to 0.6 μg/mL, positive control) for 72 h at 37°C in 5% CO2. After compound exposure, cells were fixed with absolute ethanol and stained with Giemsa. A total of 200 macrophages were counted under a light microscope. The infection index was determined by the […] percentage of infected macrophages multiplied by the mean number of amastigotes per macrophage out of 200 macrophages.

[9] = system: L. amazonensis axenic amastigotes; parameters: method as in PMID 18849135; settings: cited from earlier work
[10] = system: L. amazonensis promastigotes; settings: cited from earlier work

Compound	IC50 [2]	CC50 at 72 h (Cytotoxicity assay (MTT); murine peritoneal macrophages)	IC50 [3]	IC50 [4]	activity against L. amazonensis amastigotes (in words) [2]	further results
C[C@@H]1[C@H](O)[C@@H](C)/C=C/C=C/C=C/C=C/C=C/C=C/C=C/[C@H](O[C@@H]2O[C@H](C)[C@@H](O)[C@H](N)[C@@H]2O)C[C@@H]2O[C@](O)(C[C@@H](O)C[C@@H](O)[C@H](O)CC[C@@H](O)C[C@@H](O)CC(=O)O[C@H]1C)C[C@H](O)[C@H]2C(=O)O [Amphotericin B, reference compound]						IC50 [1]: < 7.8 µg/mL
COc1ccc2c(c1)OC1c3ccc4c(c3OCC21)C=CC(C)(C)O4 (centres unmarked) [Compound 1, hemileiocarpin]	10.6 µg/mL and 31.6 µM	> 100 µg/mL and > 297 µM	20.8 µg/mL and 61.9 µM			
CC1(C)C=Cc2c(ccc3c2OCC2c4cc5c(cc4OC32)OCO5)O1 (centres unmarked) [Compound 2, leiocarpin]	7.1 µg/mL and 20.4 µM	39 µg/mL and 116 µM	15.5 µg/mL and 44.3 µM	11.4 µg/mL and 33.8 µM		SI (Selectivity Index) ([2]; CC50 macrophages / IC50 L. amazonensis amastigotes): 5.7; ROS level ([5]; 24 h, 2 at 33.8 μM, 3 at 11.4 μM): no alteration in the ROS level; reduction in mitochondrial membrane potential (ΔΨm) [6]: 37.6%; increase in neutral lipid levels in relation to the untreated control [7]: 86.9%; plasma membrane integrity (PI-positive parasites) [8]: significant increase in the percentage of PI-positive parasites
CCCCCCCCCCCCCC1=C(O)C(=O)C=C(O)C1=O [Compound 4, rapanone]	> 3.2 µg/mL and > 10.6 µM	2.9 µg/mL and 9.8 µM	7.2 µg/mL and 24.5 µM	50.4 µg/mL and 169 µM	inactive	activity against L. amazonensis promastigotes (in words) [4]: inactivity; Promastigotes IC50 L. infantum [3]: 7.17 ± 0.3 µg/mL
CCCCCCCCCCCC1=C(O)C(=O)C=C(O)C1=O [Compound 5, embelin]	> 3.2 µg/mL and > 9.7 µM		10.7 µg/mL and 33.2 µM	12.5 µg/mL and 38.9 µM	inactive	CC50 at 72 h (Cytotoxicity assay (MTT); read-out: Cytotoxicity CC50 Murine macrophages): 0.9 µg/mL and 2.6 µM
CCCCCCCCCCCCCCCC1=C(O)C(=O)C=C(O)C1=O [Compound 6, suberonone]	> 3.2 µg/mL and > 8.9 µM	4.2 µg/mL and 11.7 µM	37.2 µg/mL and 106 µM	51.9 µg/mL and 149 µM	inactive	activity against L. amazonensis promastigotes (in words) [4]: not considered active; activity against L. infantum promastigotes (in words) [3]: not considered active
N#CC(C#N)=NNc1ccc(OC(F)(F)F)cc1 [FCCP, carbonyl cyanide 4-(trifluoro-methoxyl)phenylhydrazone, reference compound]						reduction in mitochondrial membrane potential (ΔΨm) [6]: 51.6%
CCCCCCCCCCCCCCCCOP(=O)([O-])OCC[N+](C)(C)C [Miltefosine, reference compound]	5.2 µg/mL and 12.7 µM		2.6 µg/mL and 6.5 µM	9 µg/mL and 22.1 µM		SI (Selectivity Index) [2]: 10.4; IC50 (L. infantum amastigotes): 3.7 µM; increase in ROS production ([5]; miltefosine 44.2 μM, positive control): 162.3%
CCC(C)C(=O)c1c(O)c(CC=C(C)C)c(O)c2c(-c3ccccc3)cc(=O)oc12 (centres unmarked) [mammea A/BB]						IC50 axenic amastigotes [9]: 0.88 µg/mL (≈ 2.16 µM); IC50 promastigotes [10]: 3 µg/mL (≈ 7.38 µM)
